Test results as given in patent US10730885B1, “Coumarin derivatives” (KING SAUD UNIVERSITY, priority 2019, dated 2020).
In brackets after ≈: the same amount, converted by molar mass. Entries after “also recorded” stand apart in the source; their conditions may differ. Where two headings read alike, the source gives them in different places.

Columns and labels:
tested microorganisms [1] = experiment: MIC by two fold serial dilution, summary over the tested microorganisms; type: cell-based; settings: against gram-positive bacteria
Excerpt: (§1) The newly synthesized compounds were individually tested for their in vitro antimicrobial activity against the standard bacteria strains of American Type Culture Collection (ATCC), namely, Staphylococcus aureus ATCC 29213, Bacillus subtilis ATCC 6633, Bacillus megaterium ATCC 9885 (Gram-positive), Escherichia coli ATCC 2592 and Pseudomonas aeruginosa ATCC 27953 (Gram-negative). In addition, they were microbiologically tested against the locally isolated Saccharomyces cerevisiae (yeast) and the standard strain of Agricultural Research Service Culture Collection (NRRL) of the yeast like pathogenic fungus Candida albicans NRRL Y-477. The primary screening was carried out using the agar well diffusion method using nutrient agar (NA) medium and Sabourand dextrose agar (SDA) medium for pathological tested bacteria and yeast, respectively.
(§2) The bacteriostatic activity of the active compounds (having IZ>16 mm) was then evaluated using the two fold serial dilution technique. Two-fold serial dilutions of the tested compound solutions were prepared using the proper nutrient broth. The final concentration of the solutions were 1000, 500, 250 and 125 μg/ml. The tubes were then inoculated with the test organisms, grown in their suitable broth at 37° C. for 24 hours for tested microorganisms. (1×10^8 CFU/ml for bacteria and 1×10^6 CFU/ml of yeast), each 5 ml received 0.1 ml of the above inoculum and incubated at 37° C. for 24 h. The lowest concentration showing no growth was taken as the minimum inhibitory concentration (MIC).

trypsin = experiment: Proteinase inhibitory activity (trypsin/casein); type: biochemical; settings: for % Inhibition of proteinase activity: 250 μg/ml, mean ± SD (n = 3)
Procedure: For proteinase inhibitory activity, the reaction mixture (2 ml) contained 0.06 mg trypsin, 20 mM Tris HCl buffer (pH 7.4) and 1 ml test sample (250 μg/ml for each compound). The mixture was incubated for 5 min and then 1 ml of 0.8% (w/v) casein was added. The mixture was incubated for an additional 20 min. 1 ml of 10% perchloric acid was added to arrest the reaction. The cloudy suspension was centrifuged, and the absorbance of the supernatant was read at 280 nm. Reference standard compound aspirin was used as the positive control for this assay. The experiment was performed in triplicate. Percentage inhibition of […] was calculated by using the following formula:
[formula] where Acontrol is the absorbance of the control reaction and Atest is the absorbance of the control reaction with sample.

[2] = DPPH microplate radical scavenging antioxidant assay; type: biochemical; settings: for IC50: DPPH, 30 min, mean ± SD (n = 3)
Procedure: The antioxidant activity of the synthesized compounds was measured in terms of hydrogen-donating or radical scavenging ability using the DPPH microplate-based method. Absorbance measurement was obtained using Microplate/cuvette reader (Spectramax M5, Molecular Devices, California, USA). Reference standard compound ascorbic acid was used as the positive control for this assay at concentrations ranging from 1.563 to 200 μg/mL. Test samples were prepared at a starting concentration of 200 μg/mL after mixing with 100 μl of 0.2 mM DPPH methanolic solution. A series of concentrations were tested for the samples in order to determine the 50% inhibitory concentration (IC50). Samples were incubated with DPPH in the dark for 30 min at room temperature (25° C.). The DPPH solution in methanol was prepared daily and stored in a flask covered with aluminum foil. DPPH radicals have an absorption maximum (λmax) at 515 nm, in which the absorbance values were measured and converted into percentage of antioxidant activity.
Methanolic DPPH solution without antioxidant was applied as control and background control was samples in methanol only. IC50 was determined using Graphpad Prism 7 (Graphpad Software Inc. CA, USA). The percentage inhibition was calculated by using the formula:
The assay was carried out in triplicate and performed as much as possible in an area protected against light. The data points are presented as the mean±standard deviation (SD) (n=3).

[3] = test system: formaldehyde-induced paw oedema; experiment: Formaldehyde-induced rat paw oedema; type: in vivo; settings: 2.5 mg/kg orally
Procedure: Testing was performed to determine formaldehyde-induced rat paw oedema (edema). For the formaldehyde-induced rat paw oedema (edema) test, female Wister albino rats (150-175 g) were used for determination of the anti-inflammatory activities. The rats were obtained from the animal house colony of the National Organization for Drug Control and Research (NODCAR), Egypt. The animals were kept in standard plastic cages in an air conditioned room at 22±3° C., 55±5% humidity and supplied with standard laboratory diet and water ad libitum. All animal experimental procedures were carried out according to the Ethics Committee of the National Research Centre, Cairo, Egypt and followed the guidelines of the National Institutes of Health, Guide for Care and Use of Laboratory Animals (1985).
The percentage protection against inflammation was calculated by using following formula:
[formula] where Vc is the mean percentage increase in paw volume in the control and Vd is the mean percentage increase in paw volume after injection of the test compound. Values were expressed as mean±standard error (S.E.). Comparisons between mean values were carried out using two-way analysis of variance (ANOVA), followed by Tukey Kramer multiple comparisons test for all acute toxicity study tests. […] was considered significant. Graph pad prism software (version 6) was used to carry out all statistical tests.

[4] = test system: Candida albicans NRRL Y-477; experiment: Agar well diffusion, primary antimicrobial screening; type: cell-based; settings: for zone of inhibition at 10000 µg/mL: Candida albicans, NRRLY477, C. albicans NRRL Y-477, 100 μL of 10 mg/ml in DMSO, 24 h, read-out: Inhibition Diameter Zone CA
Excerpt: as §1
(§3) Antimicrobial tests were carried out by the agar well diffusion method using 100 μL of suspension containing 1×10^8 CFU/mL of pathological tested bacteria and 1×10^6 CFU/ml of yeast spread on NA and SDA, respectively. After the media was cooled and solidified, wells (10 mm in diameter) were made in the solidified agar and loaded with 100 μL of tested compound solution prepared by dissolving 10 mg of the chemical compound in one ml of dimethyl sulfoxide (DMSO). The inculcated plates were then incubated for 24 h at 37° C. for bacteria and yeast. Negative controls were prepared using DMSO employed for dissolving the tested compound. Ciprofloxacin (10 mg/ml) and ketoconazole (10 mg/ml) were used as standard for antibacterial and antifungal activity, respectively. After incubation time, antimicrobial activity was evaluated by measuring the zone of inhibition against the test organisms and compared with that of the standard. Antimicrobial activities were expressed as inhibition diameter zones in millimeters (mm). The experiment was carried out in triplicate and the average zone of inhibition was calculated.

[5] = test system: Staphylococcus aureus ATCC 29213; experiment: as above; type: cell-based; settings: for zone of inhibition at 10000 µg/mL: Staphylococcus aureus, ATCC29213, S. aureus ATCC 29213, 100 μL of 10 mg/ml in DMSO, 24 h, read-out: Inhibition Diameter Zone SA
Excerpt: as §1, §3

[6] = test system: Escherichia coli ATCC 2592; experiment: as above; type: cell-based; settings: Escherichia coli, ATCC2592; E. coli ATCC 2592; 100 μL of 10 mg/ml in DMSO, 24 h; read-out: Inhibition Diameter Zone EC
Excerpt: as §1, §3

[7] = test system: Saccharomyces cerevisiae (local isolate); experiment: as above; type: cell-based; settings: for zone of inhibition at 10000 µg/mL: Saccharomyces cerevisiae, 24 h, read-out: Inhibition Diameter Zone SC
Excerpt: as §1, §3

[8] = test system: Pseudomonas aeruginosa ATCC 27953; experiment: as above; type: cell-based; settings: Pseudomonas aeruginosa, ATCC27953; P. aeruginosa ATCC 27953; 100 μL of 10 mg/ml in DMSO, 24 h; read-out: Inhibition Diameter Zone PA
Excerpt: as §1, §3

tested microorganisms [9] = experiment: Agar well diffusion, summary over the tested microorganisms; type: cell-based
Excerpt: as §1, §3

[10] = test system: Bacillus subtilis ATCC 6633; experiment: Agar well diffusion, primary antimicrobial screening; type: cell-based
Excerpt: as §1, §3

[11] = test system: Candida albicans NRRL Y-477; experiment: MIC by two fold serial dilution technique; type: cell-based; settings: NRRLY477, C. albicans, read-out: Minimal Inhibitory Concentration (MIC) CA
Excerpt: as §1, §2

[12] = test system: Saccharomyces cerevisiae (local isolate); experiment: MIC by two fold serial dilution technique; type: cell-based; settings: read-out: Minimal Inhibitory Concentration (MIC) SC
Excerpt: as §1, §2

[13] = test system: Bacillus megaterium ATCC 9885; experiment: Agar well diffusion, primary antimicrobial screening; type: cell-based; settings: Priestia megaterium, ATCC9885; B. megaterium ATCC 9885; 100 μL of 10 mg/ml in DMSO, 24 h; read-out: Inhibition Diameter Zone BM
Excerpt: as §1, §3

[14] = S. cerevisiae local isolate, 100 μL of 10 mg/ml in DMSO

| SMILES | melting point [°C] | % Inhibition of proteinase activity (trypsin) [%] | IC50 [2] | zone of inhibition at 10000 µg/mL [4] [mm] | zone of inhibition at 10000 µg/mL [5] [mm] | zone of inhibition at 10000 µg/mL [7, 14] [mm] | in vivo anti-inflammatory activity [3] | in vitro anti-proteinase activity compared with aspirin (trypsin) | also measured |
| --- | --- | --- | --- | --- | --- | --- | --- | --- | --- |
| Cc1ccc2oc(=O)c3c(c2c1)OC(N)=C(C#N)C3c1ccc([N+](=O)[O-])cc1 (racemic) [Compound 5a, (±)-2-amino-9-methyl-4-(4-nitrophenyl)-5-oxo-4H,5H-pyrano[3,2-c]chromene-3-carbonitrile] | 259 to 261 | 17.38 ± 1.63 | — ((—): inactive (IC50 > 200 μg/mL)) |  |  |  |  |  | MIC (tested microorganisms [1]): 500 to 1000 µg/mL (≈ 1330 to 2660 µM) |
| CC(=O)c1ccc(NS(=O)(=O)c2c(O)c3cc(Cl)ccc3oc2=O)cc1 [Compound 11e, N-(4-acetylphenyl)-6-chloro-4-hydroxy-2-oxo-2H-chromene-3-sulfonamide] | 238 to 240 |  | 32.85 ± 1.322 µg/mL (≈ 83.4 µM) | < 15 | < 15 | < 15 |  |  | % inhibition of rat paw oedema ([3]; one hour after induction of inflammation): 9.45%; antifungal activity compared with reference drug ([4]; C. albicans): higher antifungal activity; zone of inhibition at 10000 µg/mL [6]: < 15 mm; zone of inhibition at 10000 µg/mL [8]: < 15 mm |
| O=c1oc2ccc(Cl)cc2c(O)c1S(=O)(=O)Nc1ccc(O)cc1 [Compound 11c, 6-Chloro-4-hydroxy-N-(4-hydroxyphenyl)-2-oxo-2H-chromene-3-sulfonamide] | 250 to 251 |  | 3.87 ± 0.409 µg/mL (≈ 10.5 µM) |  |  | 32 | significant protection against inflammation | as potent | antimicrobial activity compared with standard antimicrobials (ciprofloxacin and ketoconazole) (tested microorganisms [9]; against one or more microorganisms): equal to or higher than the standard antimicrobials; antioxidant activity ([2]; overview): particularly high antioxidant activity; antibacterial activity compared with ciprofloxacin ([5]; S. aureus): higher than the control ciprofloxacin; antibacterial activity compared with reference drug ([10]; B. subtilis): comparable antibacterial activities to the standard; antimicrobial activity compared with ketoconazole ([7]; S. cerevisiae): higher than that of the corresponding control drug |
| Cc1ccc2oc(=O)c(S(=O)(=O)Nc3ccc(S(=O)(=O)Nc4nccs4)cc3)c(O)c2c1 [Compound 10f, 4-hydroxy-6-methyl-2-oxo-N-(4-(N-(thiazol-2-yl)sulfamoyl)phenyl)-2H-chromene-3-sulfonamide] | 167 to 169 | 43.88 ± 5.6 | 83.52 ± 1.849 µg/mL (≈ 169 µM) |  |  |  | significant protection against inflammation | as potent |  |
| Cc1ccc2oc(=O)c3c(c2c1)OC(N=Cc1ccc(Cl)cc1Cl)=C(C#N)C3c1ccc([N+](=O)[O-])cc1 (racemic) [Compound 8e, (±)-2-((2,4-dichlorobenzylidene)amino)-9-methyl-4-(4-nitrophenyl)-5-oxo-4H,5H-pyrano[3,2-c]chromene-3-carbonitrile] | 236 to 238 | 45.78 ± 1.62 | — ((—): inactive (IC50 > 200 μg/mL)) | 20 |  |  |  | as potent | MIC [11]: 500 µg/mL (≈ 939 µM); MIC [12]: 500 µg/mL (≈ 939 µM) |
| Cc1ccc2oc(=O)c3c(c2c1)OC(N)=C(C(N)=O)C3c1ccc([N+](=O)[O-])cc1 (racemic) [Compound 6a, (±)-2-amino-9-methyl-4-(4-nitrophenyl)-5-oxo-4H, 5H-pyrano[3,2-c]chromene-3-carboxamide] | 142 to 144 | 79.72±4.51 | — ((—): inactive (IC50 > 200 μg/mL)) | < 15 | < 15 |  | significant in vivo anti-inflammatory activity; also recorded: significant protection against inflammation | more potent | zone of inhibition at 10000 µg/mL [7]: < 15 mm |
| Cc1ccc2oc(=O)c(S(=O)(=O)Nc3ccc(S(N)(=O)=O)cc3)c(O)c2c1 [Compound 10b, 4-Hydroxy-6-methyl-2-oxo-N-(4-sulfamoylphenyl)-2H-chromene-3-sulfonamide] | 241 to 243 | 5.93 ± 2.11 | 61.78 ± 2.719 µg/mL (≈ 151 µM) | < 15 | < 15 | < 15 |  |  | growth inhibition zones (tested microorganisms [9]; against one or more of the tested microorganisms): < 15 mm; zone of inhibition at 10000 µg/mL [13]: < 15 mm; zone of inhibition at 10000 µg/mL ([10]; Bacillus subtilis, ATCC6633, B. subtilis ATCC 6633, 100 μL of 10 mg/ml in DMSO, 24 h, read-out: Inhibition Diameter Zone BS): < 15 mm; zone of inhibition at 10000 µg/mL [6]: < 15 mm; zone of inhibition at 10000 µg/mL [8]: < 15 mm |
